We go through eleven compounds from patent US9487515B2, “Compounds modulating c-fms and/or c-kit activity and uses therefor” (Plexxikon Inc., priority 2006, dated 2016).

SMILES strings stand for the structures.

In test [1] the target is c-kit (Homo sapiens, UniProt P10721). The test is described as follows: c-kit assays of Examples 40 and 41 (AlphaScreen kinase assays at 10 and 100 μM ATP, 33P-ATP filter assay, M-07e SCF-stimulated proliferation and phosphorylation). A general note: In Alpha technology, singlet oxygen from a donor bead excites a nearby acceptor bead.
In test [2] the target is T1, TrkA kinase (Homo sapiens, UniProt P04629).
T1 construct: purchased Upstate Biotech #14-571
The test is described as follows: TrkA biochemical assay (AlphaScreen). As to conditions: 100 μM ATP.

Test [3] deals with MAP4K4 (HGK) (Homo sapiens, UniProt O95819). The test is described as follows: HGK biochemical assay (AlphaScreen). The following applies: 10 μM ATP. The protocol: Substrate was 10 nM biotin-ERM (T567/T564/T558, Cell Signaling, Inc., cat#1344). MAP4K4 kinase was at 0.5 ng per sample.
Test [4] has as its system cells with activating c-kit mutations. The following applies: mutations in the catalytic region; cited from earlier work.

MAP4K4 (HGK), sequence (O95819 whole entry): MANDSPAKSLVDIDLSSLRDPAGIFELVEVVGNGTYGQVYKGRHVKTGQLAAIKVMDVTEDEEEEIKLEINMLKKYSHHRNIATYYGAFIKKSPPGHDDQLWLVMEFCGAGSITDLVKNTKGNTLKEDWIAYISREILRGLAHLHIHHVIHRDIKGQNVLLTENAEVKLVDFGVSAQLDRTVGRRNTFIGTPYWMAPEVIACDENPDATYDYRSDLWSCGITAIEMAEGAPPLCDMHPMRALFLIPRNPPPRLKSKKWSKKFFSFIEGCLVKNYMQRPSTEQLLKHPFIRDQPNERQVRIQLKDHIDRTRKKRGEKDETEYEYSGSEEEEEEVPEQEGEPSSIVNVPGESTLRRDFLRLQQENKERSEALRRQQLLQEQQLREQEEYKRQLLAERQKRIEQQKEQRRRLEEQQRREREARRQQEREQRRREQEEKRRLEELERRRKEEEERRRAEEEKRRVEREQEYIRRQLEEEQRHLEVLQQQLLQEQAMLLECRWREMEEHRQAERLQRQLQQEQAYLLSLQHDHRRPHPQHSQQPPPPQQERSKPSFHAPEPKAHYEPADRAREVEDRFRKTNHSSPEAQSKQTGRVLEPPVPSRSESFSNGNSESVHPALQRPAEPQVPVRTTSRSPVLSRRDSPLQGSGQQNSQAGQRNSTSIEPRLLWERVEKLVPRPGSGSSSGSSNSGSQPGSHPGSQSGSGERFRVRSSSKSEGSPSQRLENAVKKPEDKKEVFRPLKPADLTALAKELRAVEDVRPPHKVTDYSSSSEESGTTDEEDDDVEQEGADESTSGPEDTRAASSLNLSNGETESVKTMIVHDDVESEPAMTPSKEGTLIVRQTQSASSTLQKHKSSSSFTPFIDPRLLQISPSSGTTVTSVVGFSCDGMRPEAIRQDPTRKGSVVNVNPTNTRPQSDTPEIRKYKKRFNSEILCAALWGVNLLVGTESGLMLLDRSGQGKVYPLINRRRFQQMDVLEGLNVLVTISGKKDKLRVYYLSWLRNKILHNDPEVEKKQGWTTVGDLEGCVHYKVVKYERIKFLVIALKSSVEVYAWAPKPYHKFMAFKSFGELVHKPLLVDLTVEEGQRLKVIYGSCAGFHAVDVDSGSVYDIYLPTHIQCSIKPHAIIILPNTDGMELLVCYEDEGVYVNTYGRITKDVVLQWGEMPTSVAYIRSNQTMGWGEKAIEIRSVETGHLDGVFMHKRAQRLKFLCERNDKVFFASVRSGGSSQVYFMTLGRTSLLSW
T1 sequence (P04629 33-796): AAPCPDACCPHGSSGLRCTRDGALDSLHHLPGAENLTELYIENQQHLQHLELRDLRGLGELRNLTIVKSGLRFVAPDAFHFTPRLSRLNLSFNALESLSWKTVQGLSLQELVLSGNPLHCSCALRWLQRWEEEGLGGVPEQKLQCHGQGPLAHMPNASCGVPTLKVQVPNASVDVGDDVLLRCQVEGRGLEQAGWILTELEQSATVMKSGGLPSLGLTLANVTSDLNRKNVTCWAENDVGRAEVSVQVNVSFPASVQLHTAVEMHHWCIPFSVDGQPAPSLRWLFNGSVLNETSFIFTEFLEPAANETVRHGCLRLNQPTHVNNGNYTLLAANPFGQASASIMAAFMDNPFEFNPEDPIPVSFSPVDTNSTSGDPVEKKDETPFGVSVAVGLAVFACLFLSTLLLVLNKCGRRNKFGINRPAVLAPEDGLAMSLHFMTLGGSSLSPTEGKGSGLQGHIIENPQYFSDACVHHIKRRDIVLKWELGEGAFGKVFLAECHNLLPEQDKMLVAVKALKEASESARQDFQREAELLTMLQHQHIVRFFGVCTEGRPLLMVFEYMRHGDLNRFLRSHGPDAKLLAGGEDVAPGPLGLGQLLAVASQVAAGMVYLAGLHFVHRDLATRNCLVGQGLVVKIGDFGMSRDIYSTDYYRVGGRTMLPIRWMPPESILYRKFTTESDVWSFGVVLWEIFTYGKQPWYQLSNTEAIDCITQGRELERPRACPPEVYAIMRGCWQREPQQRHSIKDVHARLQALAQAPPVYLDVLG
c-kit, sequence (P10721 with tags, fused parts or gaps): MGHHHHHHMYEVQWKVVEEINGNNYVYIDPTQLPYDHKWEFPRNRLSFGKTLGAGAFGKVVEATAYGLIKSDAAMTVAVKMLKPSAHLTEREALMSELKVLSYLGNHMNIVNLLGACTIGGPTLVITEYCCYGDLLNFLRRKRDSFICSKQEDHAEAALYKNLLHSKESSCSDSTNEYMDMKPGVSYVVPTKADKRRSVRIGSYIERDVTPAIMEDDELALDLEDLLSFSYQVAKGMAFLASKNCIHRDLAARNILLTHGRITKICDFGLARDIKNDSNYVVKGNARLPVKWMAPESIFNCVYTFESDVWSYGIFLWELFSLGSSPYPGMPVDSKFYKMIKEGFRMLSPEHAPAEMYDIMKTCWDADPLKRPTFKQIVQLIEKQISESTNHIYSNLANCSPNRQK

Usually IC50 stands for the midpoint of a concentration-inhibition curve. The low end stands for inhibition by little substance, the high end for a need for much substance. For the compound `Cc1nn(C(=O)NCCc2ccc(F)cc2)c(C)c1Cc1c[nH]c2ncc(Cl)cc12` [P-0157, 4-(5-Chloro-1H-pyrrolo[2,3-b]pyridin-3-ylmethyl)-3,5-dimethyl-pyrazole-1-carboxylic acid [2-(4-fluoro-phenyl)-ethyl]-amide], the IC50 in test [1] and in test [2] was under 1000 nM each time.
Turning to `Cc1cccc(CNc2nc(Cl)c(Cc3c[nH]c4ncccc34)s2)n1` [P-0171, [4-Chloro-5-(1H-pyrrolo[2,3-b]pyridin-3-ylmethyl)-thiazol-2-yl]-(6-methyl-pyridin-2-ylmethyl)-amine], the half-inhibitory concentration (IC50) in test [1] and in test [2] was under 1000 nM each time.
Consider `Cn1cc(-c2cnc3[nH]cc(Cc4ccc(NCc5ccc(C(F)(F)F)nc5)nc4Cl)c3c2)cn1` [P-0179, {6-Chloro-5-[5-(1-methyl-1H-pyrazol-4-yl)-1H-pyrrolo[2,3-b]pyridin-3-ylmethyl]-pyridin-2-yl}-(6-trifluoromethyl-pyridin-3-ylmethyl)-amine], for which the IC50 in test [3], in test [1] and in test [2] was under 1000 nM throughout.
In the case of `Cn1cc(-c2cnc3[nH]cc(Cc4cc(NCc5ccc(F)cc5)nn4C)c3c2)cn1` [P-0180, (4-Fluoro-benzyl)-{1-methyl-5-[5-(1-methyl-1H-pyrazol-4-yl)-1H-pyrrolo[2,3-b]pyridin-3-ylmethyl]-1H-pyrazol-3-yl}-amine], the IC50 in test [1] and in test [2] was under 1000 nM in each case.
For the compound `Fc1ccc(CNc2nc(Cl)c(Cc3c[nH]c4ncc(Cl)cc34)s2)nc1` [P-0240, [4-Chloro-5-(5-chloro-1H-pyrrolo[2,3-b]pyridin-3-ylmethyl)-thiazol-2-yl]-(5-fluoro-pyridin-2-ylmethyl)-amine], the IC50 in test [3] and in test [1] was under 1000 nM throughout.
Turning to `Cc1cccc(CNc2nc(Cl)c(Cc3c[nH]c4ncc(Cl)cc34)s2)n1` [P-0255, [4-Chloro-5-(5-chloro-1H-pyrrolo[2,3-b]pyridin-3-ylmethyl)-thiazol-2-yl]-(6-methyl-pyridin-2-ylmethyl)-amine], the IC50 in test [3] and in test [1] was under 1000 nM each time.
With `FC(F)(F)Oc1ccccc1CNc1ncc(Cc2c[nH]c3ncccc23)cn1` [P-0303, [5-(1H-Pyrrolo[2,3-b]pyridin-3-ylmethyl)-pyrimidin-2-yl]-(2-trifluoromethoxy-benzyl)-amine], the IC50 in test [1] and in test [2] was under 1000 nM each time.
Take `Fc1cncc(CNc2ccc(Cc3c[nH]c4ncc(Cl)cc34)cn2)c1` [P-0324, [5-(5-chloro-1H-pyrrolo[2,3-b]pyridin-3-ylmethyl)-pyridin-2-yl]-(5-fluoro-pyridin-3-ylmethyl)-amine]: the IC50 in test [3] and in test [1] was under 1000 nM in each case.
For `Cc1cnc2[nH]cc(Cc3ccc(NCc4c(F)cccc4F)nc3)c2c1` [P-0341, (2,6-Difluoro-benzyl)-[5-(5-methyl-1H-pyrrolo[2,3-b]pyridin-3-ylmethyl)-pyridin-2-yl]-amine], the IC50 in test [3] and in test [1] was under 1000 nM throughout.
With `O=C(Nc1cccc(F)c1)Nc1ccc(Cc2c[nH]c3ncccc23)cn1` [P-0412, 1-(3-fluoro-phenyl)-3-[5-(1H-pyrrolo[2,3-b]pyridin-3-ylmethyl)-pyridin-2-yl]-urea], the concentration for half-maximal inhibition (IC50) in test [1] and in test [2] was under 1000 nM each time.
Turning to `Cc1ccc(NC(=O)c2ccc(CN3CCN(C)CC3)cc2)cc1Nc1nccc(-c2cccnc2)n1` [STI571], the “inhibition of cells with c-kit mutations” value in test [4] is “did not inhibit the cells”.
